For the assay, the target named is full length NS3/4a (Hepatitis C virus genotype 1b (isolate BK) (HCV), UniProt P26663). Kind of assay: NS3 Protease Assay (Example A), FRET-based. The class given is biochemical. To be noted: for IC50: HCV NS3 protease assay, full length NS3/4a, read-out: Assay A IC50 (μM) average; for pIC50: read-out: IC50 against the protease activity of the full length NS3/4a. In outline:
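Full-length NS3/4a, made in-house, with an NS4A/B-derived peptide substrate carrying QXL520 quencher and 5-FAMsp fluorophore. Buffer 50 mM Tris pH8, 20 mM DTT, 1% CHAPS, 10% glycerol, 5% DMSO. Fluorescence followed 30 min at room temperature; IC50 from initial rates of replicate curves.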

Where [1] appears, read: stated as IC50 less than 30 μM or at least 40% inhibition at a concentration of 100 μM.

pIC50: −log10 of the molar value. Counter-ions that a name gives are not always drawn. Like-named read-outs stand apart in the source and are kept apart here.

Sequence of full length NS3/4a (P26663 1027-1657): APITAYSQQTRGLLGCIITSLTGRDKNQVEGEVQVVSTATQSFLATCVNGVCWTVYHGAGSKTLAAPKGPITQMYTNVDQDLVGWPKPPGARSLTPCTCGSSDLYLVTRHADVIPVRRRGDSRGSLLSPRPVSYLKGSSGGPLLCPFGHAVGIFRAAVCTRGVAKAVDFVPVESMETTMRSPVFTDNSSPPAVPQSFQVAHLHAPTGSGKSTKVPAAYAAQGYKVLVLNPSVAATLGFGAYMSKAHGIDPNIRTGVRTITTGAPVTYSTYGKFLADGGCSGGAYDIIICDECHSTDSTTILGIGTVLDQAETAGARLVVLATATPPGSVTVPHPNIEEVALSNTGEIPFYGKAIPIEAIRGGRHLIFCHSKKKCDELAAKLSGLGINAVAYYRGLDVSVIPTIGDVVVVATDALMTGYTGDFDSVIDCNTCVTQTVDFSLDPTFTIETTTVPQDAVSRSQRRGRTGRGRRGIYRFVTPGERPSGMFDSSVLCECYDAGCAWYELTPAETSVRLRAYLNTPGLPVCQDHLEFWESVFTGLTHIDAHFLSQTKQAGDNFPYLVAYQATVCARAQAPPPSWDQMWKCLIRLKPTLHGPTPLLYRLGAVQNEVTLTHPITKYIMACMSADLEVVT

As for `CC[C@@H](N)c1ccc(Cl)c(C(=O)c2ccc(-n3cccn3)nc2)c1F` [Example 37, (1R)-1-(4-chloro-2-fluoro-3-{[6-(1H-pyrazol-1-yl)pyridin-3-yl]carbonyl}phenyl)propan-1-amine], the IC50 – broadly, the point on the concentration scale where inhibition reaches its midpoint – turned out to be 0.49 µM and the pIC50 is greater than 6.00.
`CCC(NC1(C(N)=O)CC1)c1ccc(Cl)c(C(=O)c2ccccc2)c1F` (stereo not shown) [Example 184, 1-[1-(3-Benzoyl-4-chloro-2-fluorophenyl)-propylamino]-cyclopropanecarboxylic acid amide.HCl]: testing at 10 µM (@ 10 uM) gave an inhibition of 22%.
Turning to `C[C@H](CC(N)=O)N[C@@H](c1ccc(Cl)c(C(=O)c2ccncc2)c1F)C1CC1` [Example 130, (3R)-3-{[(R)-{4-chloro-2-fluoro-3-[(pyridin-4-yl)carbonyl]phenyl}-(cyclopropyl)methyl]-amino}butanamide], the IC50 was 1.5 µM and the pIC50 was 5.30 to 6.00.
As for `CC[C@H](CC(N)=O)N[C@H](CC)c1ccc(Cl)c(C(=O)c2ccc(N)nc2)c1F` [Example 226, (3R)-3-{[(1R)-1-{3-[(6-aminopyridin-3-yl)carbonyl]-4-chloro-2-fluorophenyl}propyl]amino}pentanamide], the IC50 came to 1.1 µM and the pIC50 is 5.30 to 6.00.
On to `CC[C@@H](NCCF)c1ccc(Cl)c(C(=O)c2cccnc2)c1F` [Example 290, [(1R)-1-{4-chloro-2-fluoro-3-[(pyridin-3-yl)carbonyl]phenyl}propyl] (2-fluoroethyl)amine], for which the IC50 stood at 14 µM. Moreover, the pIC50 under setting [1] is greater than 4.52.
As for `CC[C@@H](NC1CCOCC1)c1ccc(Cl)c(C(=O)c2cccnc2)c1F` [Example 283, N-[(1R)-1-{4-chloro-2-fluoro-3-[(pyridin-3-yl)carbonyl]phenyl}propyl]oxan-4-amine], the pIC50 under setting [1] was greater than 4.52.
Consider `Nc1ccc(C(=O)c2c(Cl)ccc([C@H](N)C3CC3)c2F)cn1` [Example 47, 5-({3-[(R)-amino(cyclopropyl)methyl]-6-chloro-2-fluorophenyl}carbonyl)pyridin-2-amine], for which the half-inhibitory concentration (IC50) turned out to be 0.18 µM and the pIC50 is greater than 6.00.
For `CC[C@@H](N)c1ccc(Cl)c(C(=O)c2ccncc2)c1F` [Example 15, (1R)-1-{4-chloro-2-fluoro-3-[(pyridin-4-yl)carbonyl]phenyl}propan-1-amine], in that order: 0.84 µM and greater than 6.00.
On to `CC[C@@H](N)c1ccc(Cl)c(C(=O)c2ccc(N)nn2)c1F` [Example 197, 6-({3-[(1R)-1-Aminopropyl]-6-chloro-2-fluorophenyl}carbonyl)pyridazin-3-amine], for which, under “@ 10 uM”, the inhibition (as a rule, the change of the read-out against control, counted positive when it falls) at 10 µM came out at 45%. For the same compound, the pIC50 under setting [1] was greater than 4.52.
Compound `CC[C@@H](NCCn1cccn1)c1ccc(Cl)c(C(=O)c2cccnc2)c1F` [Example 306, [(1R)-1-{4-chloro-2-fluoro-3-[(pyridin-3-yl)carbonyl]phenyl}propyl] [2-(1H-pyrazol-1-yl)ethyl] amine] registered an inhibition at 100 µM (@ 100 uM) of 59%. The pIC50 under setting [1] was greater than 4.52.
For `CC[C@H](N)c1ccc(Cl)c(C(=O)c2ccc(N)nc2)c1F` [Example 31, 5-({3-[(1S)-1-aminopropyl]-6-chloro-2-fluorophenyl}carbonyl)pyridin-2-amine], the IC50 turned out to be 0.18 µM and the pIC50 was greater than 6.00.
`CC[C@@H](N[C@@H](C)CC(N)=O)c1ccc(OC)c(C(=O)c2cccc(F)c2)c1F` [Example 212, (3S)-3-{[(1R)-1-{2-fluoro-3-[(3-fluorophenyl)carbonyl]-4-methoxyphenyl}propyl]amino}butanamide]: the IC50 was 0.094 µM.
With `CC[C@@H](N[C@@H](C)CC(N)=O)c1ccc(Cl)c(C(=O)c2cnc(N)cn2)c1F` [Example 138, (3S)-3-{[(1R)-1-{3-[(5-aminopyrazin-2-yl)carbonyl]-4-chloro-2-fluorophenyl}propyl]-amino}butanamide], the half-maximal inhibitory concentration (IC50) is 0.31 µM and the pIC50 was greater than 6.00.
On to `CC[C@@H](N[C@@H](C)CC(=O)NCCN)c1ccc(Cl)c(C(=O)c2ccc(N)nc2)c1F` [Example 240, (3S)-N-(2-aminoethyl)-3-{[(1 R)-1-{3-[(6-aminopyridin-3-yl)carbonyl]-4-chloro-2-fluorophenyl}propyl]amino}-butanamide], for which, where the note is “@ 0.03 uM”, the inhibition at 0.03 µM was determined as 48%. The pIC50 under setting [1] is greater than 4.52.
Turning to `COc1ccc([C@H](N[C@H](C)CC(N)=O)C2CC2)c(F)c1C(=O)c1ccc(F)cc1` [Example 209, (3R)-3-{[(R)-cyclopropyl({2-fluoro-3-[(4-fluorophenyl)carbonyl]-4-methoxyphenyl})methyl]amino}butanamide], the IC50 came out at 2.7 µM and the pIC50 is 5.30 to 6.00.
As for `CC[C@@H](N[C@@H](C)CC(N)=O)c1ccc(Cl)c(C(=O)c2ccc(NC)nc2)c1F` [Example 207, (3S)-3-{[(1R)-1-(4-chloro-2-fluoro-3-{[6-(methylamino)pyridin-3-yl]carbonyl}phenyl)propyl]amino}butanamide], the concentration for half-maximal inhibition (IC50) is 0.37 µM and the pIC50 was greater than 6.00.
The matching figures for `CC[C@H](NC(=O)C[C@@H](N)C(C)C)c1ccc(Cl)c(C(=O)c2cccnc2)c1F` [Example 298, (3R)-3-amino-N-[(1S)-1-{4-chloro-2-fluoro-3-[(pyridin-3-yl)carbonyl]phenyl}propyl]-4-methylpentanamide]: 0.064 µM and greater than 6.00.
For `CC[C@H](N)c1ccc(Cl)c(C(=O)c2ccccc2)c1F` [Example 6, (1S)-1-(3-benzoyl-4-chloro-2-fluorophenyl)propan-1-amine], the pIC50 was greater than 6.00. Besides, the inhibition at 0.3 µM (@ 0.3 uM) was 80%.
`CC[C@@H](NC)c1ccc(Cl)c(C(=O)c2cccnc2)c1F` [Example 289, [(1R)-1-{4-chloro-2-fluoro-3-[(pyridin-3-yl)carbonyl]phenyl}propyl](methyl)amine]: the IC50 was found to be 2.4 µM and the pIC50 was 5.30 to 6.00.
Consider `C[C@H](CC(N)=O)N[C@H](CC1CC1)c1ccc(Cl)c(C(=O)c2ccc(N)nc2)c1F` [Example 279, (3R)-3-{[(1R)-1-{3-[(6-aminopyridin-3-yl)carbonyl]-4-chloro-2-fluorophenyl}-2-cyclopropylethyl]amino}butanamide], for which the IC50 worked out at 0.39 µM.
As for `CC[C@@H](N)c1ccc(Cl)c(C(=O)c2cccnc2)c1F` [Example 2, (1R)-1-{4-chloro-2-fluoro-3-[(pyridin-3-yl)carbonyl]phenyl}-propan-1-amine], the IC50 came out at 1.4 µM and the pIC50 was 5.30 to 6.00.
For `CC[C@@H](N[C@H](C)CC(N)=O)c1ccc(Cl)c(C(=O)c2ccc(NC)nc2)c1F` [Example 208, (3R)-3-{[(1R)-1-(4-chloro-2-fluoro-3-{[6-(methylamino)pyridin-3-yl]carbonyl}phenyl)propyl]amino}butanamide], in that order: 3.1 µM and 5.30 to 6.00.
For the compound `CC[C@@H](N[C@H](C)CC(N)=O)c1ccc(Cl)c(C(=O)c2ccns2)c1F` [Example 109, (3R)-3-{[(1R)-1-{4-chloro-2-fluoro-3-[(1,2-thiazol-5-yl)carbonyl]phenyl}propyl]-amino}butanamide], the IC50 is 0.47 µM.
Take `CC[C@@H](N[C@H](C)CC(N)=O)c1ccc(Cl)c(C(=O)c2ccc[n+]([O-])c2)c1F` [Example 117, (R)-3-{(R)-1-[4-Chloro-2-fluoro-3-(1-oxy-pyridine-3-carbonyl)-phenyl]propylamino}-butyramide]: the “Assay A % inhibition average” value (@ 10 uM) was found to be 16% @ 10 uM.
For the compound `CC[C@@H](N[C@H](C)CC(N)=O)c1ccc(Cl)c(C(=O)c2cc(C)c(N)cn2)c1F` [Example 246, (3R)-3-{[(1R)-1-{3-[(5-amino-4-methylpyridin-2-yl)carbonyl]-4-chloro-2-fluorophenyl}propyl]amino} butanamide], the IC50 is 3.9 µM and the pIC50 is 5.30 to 6.00.
On to `CC[C@@H](N[C@@H](C)CC(N)=O)c1ccc(Cl)c(C(=O)c2cccc(CO)c2)c1F` [Example 188, (3S)-3-{[(1R)-1-(4-chloro-2-fluoro-3-{[3-(hydroxymethyl)-phenyl]carbonyl}phenyl)-propyl]amino}butanamide], for which the IC50 was determined as 0.14 µM.
Turning to `CC[C@@H](N[C@@H](C)CC(N)=O)c1ccc(OC)c(C(=O)c2ccc(F)cc2)c1F` [Example 200, (3S)-3-{[(1R)-1-{2-fluoro-3-[(4-fluorophenyl)carbonyl]-4-methoxyphenyl}propyl]amino} butanamide], the IC50 was found to be 0.078 µM and the pIC50 is greater than 6.00.
Take `C[C@H](CC(N)=O)N[C@@H](c1ccc(Cl)c(C(=O)c2cccnc2)c1F)C1CC1` [Example 118, (3R)-3-{[(R)-{4-chloro-2-fluoro-3-[(pyridin-3-yl)carbonyl]phenyl}(cyclopropyl)methyl]amino}-butanamide]: testing at 3 µM (@ 3 uM) gave an inhibition of 41%. Besides, the pIC50 under setting [1] is greater than 4.52.
Take `CC[C@@H](N[C@H](C)CC(N)=O)c1ccc(Cl)c(C(=O)c2ccc(=O)[nH]c2)c1F` [Example 148, (3R)-3-{[(1R)-1-{4-chloro-2-fluoro-3-[(6-oxo-1,6-dihydropyridin-3-yl)carbonyl]-phenyl}propyl]amino}-butanamide]: where the note is “@ 10 uM”, testing at 10 µM gave an inhibition of 43%. Further, the pIC50 under setting [1] is greater than 4.52.
Turning to `CC[C@@H](N)c1ccc(Cl)c(C(=O)c2ccc(COC(C)=O)cc2)c1F` [Example 49, [4-({3-[(1R)-1-aminopropyl]-6-chloro-2-fluorophenyl}carbonyl)phenyl]methyl acetate], the IC50 was 0.15 µM and the pIC50 is greater than 6.00.
For `C=CC[C@@H](N[C@H](C)CC(N)=O)c1ccc(Cl)c(C(=O)c2ccc(N)nc2)c1F` [Example 257, (3R)-3-{[(1R)-1-{3-[(6-aminopyridin-3-yl)carbonyl]-4-chloro-2-fluorophenyl}but-3-en-1-yl]amino}butanamide], in that order: 2 µM and 5.30 to 6.00.

For the origin of these results see patent publication US9145354B2, “Pharmaceutical compounds” (priority 2011, dated 2015).
